# Test results as given in patent US4645773A, “β-carboline-3-oxadiazolyl derivatives, and their use as psychotropic agents” (Schering Aktiengesellschaft, priority 1984, dated 1987).
# Key:
# [1] = target: benzodiazepine receptor; assay: displacement of 3H-flunitrazepam specific binding to benzodiazepine receptors (in vitro), rat forebrain membranes; settings: rat forebrain suspension, 3H-flunitrazepam 1.0 nM, 0° C., 40-60 min, pH 7.1
# Method: These sites are called benzodiazepine receptors. The displacement activity of the compounds of the invention has been determined by determining the IC50 value and the ED50 value.
# The IC50 value represents the concentration which causes a displacement of 50% of the specific binding of ^3 H-flunitrazepam (1.0 nM, 0° C.) in samples comprising a total volume of 0.55 ml of a suspension of brain membrane, e.g from rats.
# The displacement test is performed as follows:
# 0.50 ml of a suspension of non-treated rat forebrain in 25 mM KH2 PO4, pH=7.1 (5-10 mg tissue/sample) is incubated for 40-60 minutes at 0° C. together with ^3 H-diazepam (specific activity 87 Ci/mmol, 1.0 nM) or ^3 H-flunitrazepam (specific activity 87 Ci/mmol, 1.0 nM). After incubation, the suspension is filtered through "Whatman GF/C" glass fiber filters, the residue washed twice with cold buffer solution and the radioactivity measured by scintillation counting.
# The test is repeated except that prior to the addition of the radioactive labelled benzodiazepine, a given amount or an excessive amount of the compound, the displacement capability of which is to be determined, is added. Based on the data obtained the IC50 value can be calculated.
# [2] = test system: benzodiazepine receptor; assay: in vivo inhibition of 3H-flunitrazepam binding to benzodiazepine receptors in mouse forebrain; settings: mice, usually subcutaneous, 3H-flunitrazepam i.v. 15 min later, killed after further 20 min
# Method: The ED50 value represents the dose (mg/kg) of a test substance which causes the specific binding of flunitrazepam to benzodiazepine receptors in a living brain to be reduced to 50% of the control value. Such an in vivo test is carried out as follows:
# Groups of mice are injected with the test substance at different doses and usually subcutaneously. 15 minutes later ^3 H-flunitrazepam is administered intravenously to the mice and after further 20 minutes the mice are killed. Their forebrain membranes are removed and the radioactivity of these forebrain membranes is measured by scintillation counting. The ED50 value is determined from dose-response curves.
Structure (SMILES),"Affinity for the benzodiazepine receptor, inhibition of 3H-flunitrazepam binding, IC50 (in vitro) [1]","inhibition of 3H-flunitrazepam binding, ED50 (in vivo) [2]"
CCc1nc(-c2ncc3[nH]c4cccc(OCc5ccccc5)c4c3c2COC)no1,0.5 ng/mL,1.0 mg/kg
COCc1c(-c2nc(C)no2)ncc2[nH]c3cccc(OCc4ccccc4)c3c12,0.4 ng/mL,0.9 mg/kg
CCc1noc(-c2ncc3[nH]c4cccc(OC5CCC5)c4c3c2COC)n1,0.4 ng/mL,0.6 mg/kg
CCOCc1cccc2[nH]c3cnc(-c4nc(CC)no4)c(C)c3c12,0.26 ng/mL,0.4 mg/kg
"CCc1noc(-c2cc3c(cn2)[nH]c2ccc(C#CCN(C)C)cc23)n1 [3-[5-(3-ethyl-1,2,4-oxadiazole)-yl]-6-(3-dimethylaminopropargyl)-β-carboline]",0.4 ng/mL,7.9 mg/kg
CCc1noc(-c2ncc3[nH]c4cccc(OC5C=CCCC5)c4c3c2COC)n1 (stereo not drawn),0.4 ng/mL,0.75 mg/kg

# Now from value to molecule, other results behind:
"Affinity for the benzodiazepine receptor, inhibition of 3H-flunitrazepam binding, IC50 (in vitro) [1]",Structure (SMILES),"inhibition of 3H-flunitrazepam binding, ED50 (in vivo) [2]"
0.5 ng/mL,CCc1noc(-c2ncc3[nH]c4cccc(OC(C)C)c4c3c2C)n1,0.4 mg/kg
0.3 ng/mL,"CCCOc1cccc2[nH]c3cnc(-c4nc(CC)no4)c(COC)c3c12 [3-[5-(3-ethyl-1,2,4-oxadiazole)-yl]-4-methoxymethyl-5-propoxy-β-carboline]",1.4 mg/kg
0.2 ng/mL,CCc1noc(-c2ncc3[nH]c4cccc(OC(C)C)c4c3c2COC)n1,0.2 mg/kg
